# From ChEMBL document CHEMBL1649134, “Occurrence of efflux mechanism and cephalosporinase variant in a population of Enterobacter aerogenes and Klebsiella pneumoniae isolates producing extended-spectrum beta-lactamases” (2009)
# Active and inactive are the calls of the source. The rule behind the calls is not given here. Peptide text beside a SMILES is read from it. * marks the point of attachment. βNA = c1ccc2cc(N*)ccc2c1
# Legend:
# Klebsiella pneumoniae [1] = assay: Inhibition of multidrug resistance efflux pump in Klebsiella pneumoniae isolate 13 assessed as increase in intracellular [14C]chloramphenicol accumulation relative to untreated control
# Klebsiella pneumoniae [2] = assay: Inhibition of multidrug resistance efflux pump in Klebsiella pneumoniae isolate 14 assessed as increase in intracellular [14C]chloramphenicol accumulation relative to untreated control
# Klebsiella aerogenes [3] = assay: Inhibition of multidrug resistance efflux pump in Enterobacter aerogenes isolate 13 assessed as increase in intracellular [14C]chloramphenicol accumulation relative to untreated control; type: cell-based
# Klebsiella aerogenes [4] = assay: Inhibition of multidrug resistance efflux pump in Enterobacter aerogenes isolate 17 assessed as increase in intracellular [14C]chloramphenicol accumulation relative to untreated control; type: cell-based
# Klebsiella aerogenes [5] = assay: Inhibition of multidrug resistance efflux pump in Enterobacter aerogenes isolate 6 assessed as increase in intracellular [14C]chloramphenicol accumulation relative to untreated control; type: cell-based
# Klebsiella pneumoniae [6] = assay: Antimicrobial activity against multidrug resistant Klebsiella pneumoniae isolate 16 by broth dilution method; type: functional
# Klebsiella pneumoniae [7] = assay: Antimicrobial activity against multidrug resistant Klebsiella pneumoniae isolate 12 by broth dilution method; type: functional
# Klebsiella aerogenes [8] = assay: Antimicrobial activity against multidrug resistant Enterobacter aerogenes isolate 23 by broth dilution method; type: functional
# Klebsiella pneumoniae [9] = assay: Antimicrobial activity against multidrug resistant Klebsiella pneumoniae isolate 5 by broth dilution method; type: functional
# Klebsiella aerogenes [10] = assay: Antimicrobial activity against multidrug resistant Enterobacter aerogenes isolate 22 by broth dilution method; type: functional
# Klebsiella aerogenes [11] = assay: Antimicrobial activity against multidrug resistant Enterobacter aerogenes isolate 11 by broth dilution method; type: functional
# Klebsiella aerogenes [12] = assay: Antimicrobial activity against multidrug resistant Enterobacter aerogenes isolate 27 by broth dilution method; type: functional
# Klebsiella aerogenes [13] = assay: Antimicrobial activity against multidrug resistant Enterobacter aerogenes isolate 20 by broth dilution method; type: functional
# Klebsiella aerogenes [14] = assay: Antimicrobial activity against multidrug resistant Enterobacter aerogenes isolate 10 by broth dilution method; type: functional
# Klebsiella pneumoniae [15] = assay: Antimicrobial activity against multidrug resistant Klebsiella pneumoniae isolate 15 by broth dilution method; type: functional
# Klebsiella aerogenes [16] = assay: Antimicrobial activity against multidrug resistant Enterobacter aerogenes isolate 17 by broth dilution method; type: functional
# Klebsiella aerogenes [17] = assay: Antimicrobial activity against multidrug resistant Enterobacter aerogenes isolate 1 by broth dilution method; type: functional
# Klebsiella aerogenes [18] = assay: Antimicrobial activity against multidrug resistant Enterobacter aerogenes isolate 24 by broth dilution method; type: functional
# Klebsiella aerogenes [19] = assay: Antimicrobial activity against multidrug resistant Enterobacter aerogenes isolate 12 by broth dilution method; type: functional
# Klebsiella aerogenes [20] = assay: Antimicrobial activity against multidrug resistant Enterobacter aerogenes isolate 13 by broth dilution method; type: functional
# Klebsiella pneumoniae [21] = assay: Antimicrobial activity against multidrug resistant Klebsiella pneumoniae isolate 10 by broth dilution method; type: functional
# Klebsiella aerogenes [22] = assay: Antimicrobial activity against multidrug resistant Enterobacter aerogenes isolate 7 by broth dilution method; type: functional
# Klebsiella aerogenes [23] = assay: Antimicrobial activity against multidrug resistant Enterobacter aerogenes isolate 8 by broth dilution method; type: functional
# Klebsiella aerogenes [24] = assay: Antimicrobial activity against multidrug resistant Enterobacter aerogenes isolate 25 by broth dilution method; type: functional
# Klebsiella pneumoniae [25] = assay: Antimicrobial activity against multidrug resistant Klebsiella pneumoniae ATCC 11296 by broth dilution method; type: functional
# Klebsiella pneumoniae [26] = assay: Antimicrobial activity against multidrug resistant Klebsiella pneumoniae isolate 2 by broth dilution method; type: functional
# Klebsiella aerogenes [27] = assay: Antimicrobial activity against multidrug resistant Enterobacter aerogenes isolate 16 by broth dilution method; type: functional
# Klebsiella aerogenes [28] = assay: Antimicrobial activity against multidrug resistant Enterobacter aerogenes isolate 21 by broth dilution method; type: functional
# Klebsiella pneumoniae [29] = assay: Antimicrobial activity against multidrug resistant Klebsiella pneumoniae isolate 4 by broth dilution method; type: functional
# Klebsiella aerogenes [30] = assay: Antimicrobial activity against multidrug resistant Enterobacter aerogenes isolate 3 by broth dilution method; type: functional
# Klebsiella aerogenes [31] = assay: Antimicrobial activity against multidrug resistant Enterobacter aerogenes isolate 2 by broth dilution method; type: functional
# Klebsiella pneumoniae [32] = assay: Antimicrobial activity against multidrug resistant Klebsiella pneumoniae isolate 3 by broth dilution method; type: functional
# Klebsiella aerogenes [33] = assay: Antimicrobial activity against multidrug resistant Enterobacter aerogenes isolate 4 by broth dilution method; type: functional
# Klebsiella pneumoniae [34] = assay: Antimicrobial activity against multidrug resistant Klebsiella pneumoniae isolate 8 by broth dilution method; type: functional
# Klebsiella aerogenes [35] = assay: Antimicrobial activity against multidrug resistant Enterobacter aerogenes isolate 18 by broth dilution method; type: functional
# Klebsiella aerogenes [36] = assay: Antimicrobial activity against multidrug resistant Enterobacter aerogenes isolate 6 by broth dilution method; type: functional
# Klebsiella aerogenes [37] = assay: Antimicrobial activity against multidrug resistant Enterobacter aerogenes isolate 5 by broth dilution method; type: functional
# Klebsiella pneumoniae [38] = assay: Antimicrobial activity against multidrug resistant Klebsiella pneumoniae isolate 7 by broth dilution method; type: functional
# Klebsiella pneumoniae [39] = assay: Antimicrobial activity against multidrug resistant Klebsiella pneumoniae isolate 1 by broth dilution method; type: functional
# Klebsiella aerogenes [40] = assay: Antimicrobial activity against multidrug resistant Enterobacter aerogenes isolate 15 by broth dilution method; type: functional
# Klebsiella pneumoniae [41] = assay: Antimicrobial activity against multidrug resistant Klebsiella pneumoniae isolate 13 by broth dilution method; type: functional
# Klebsiella pneumoniae [42] = assay: Antimicrobial activity against multidrug resistant Klebsiella pneumoniae isolate 6 by broth dilution method; type: functional
# Klebsiella aerogenes [43] = assay: Antimicrobial activity against multidrug resistant Enterobacter aerogenes isolate 9 by broth dilution method; type: functional
# Klebsiella pneumoniae [44] = assay: Antimicrobial activity against multidrug resistant Klebsiella pneumoniae isolate 11 by broth dilution method; type: functional
# Klebsiella aerogenes [45] = assay: Antimicrobial activity against multidrug resistant Enterobacter aerogenes isolate 26 by broth dilution method; type: functional
# Klebsiella aerogenes [46] = assay: Antimicrobial activity against multidrug resistant Enterobacter aerogenes ATCC 15038 by broth dilution method; type: functional
# Klebsiella pneumoniae [47] = assay: Antimicrobial activity against multidrug resistant Klebsiella pneumoniae isolate 14 by broth dilution method; type: functional
# Klebsiella pneumoniae [48] = assay: Antimicrobial activity against multidrug resistant Klebsiella pneumoniae isolate 9 by broth dilution method; type: functional
# Klebsiella aerogenes [49] = assay: Antimicrobial activity against multidrug resistant Enterobacter aerogenes isolate 19 by broth dilution method; type: functional
# Klebsiella aerogenes [50] = assay: Antimicrobial activity against multidrug resistant Enterobacter aerogenes isolate 14 by broth dilution method; type: functional
# Escherichia coli [51] = assay: microbe, parasite or virus in culture; conditions: DH5[alpha]
# Description: Antimicrobial activity against multidrug resistant Escherichia coli DH5[alpha] harboring pACM204 plasmid by broth dilution method
# Escherichia coli [52] = assay: microbe, parasite or virus in culture; conditions: DH5[alpha]; remark: listed apart in the source
# Description: Antimicrobial activity against multidrug resistant Escherichia coli DH5[alpha] harboring pDrive plasmid expressing ampC gene by broth dilution method
# Klebsiella aerogenes [53] = assay: Antimicrobial activity against multidrug resistant Enterobacter aerogenes ATCC 15038 harboring pACM204 plasmid by broth dilution method; type: functional
# Escherichia coli [54] = assay: microbe, parasite or virus in culture; conditions: DH5[alpha]; remark: listed apart in the source
# Description: Antimicrobial activity against multidrug resistant Escherichia coli DH5[alpha] by broth dilution method
# Escherichia coli [55] = assay: microbe, parasite or virus in culture; conditions: DH5[alpha]; remark: listed apart in the source
# Description: Antimicrobial activity against multidrug resistant Escherichia coli DH5[alpha] harboring pDrive plasmid by broth dilution method
# Escherichia coli [56] = assay: Antimicrobial activity against multidrug resistant Escherichia coli ATCC 35218 by broth dilution method; type: functional
# Escherichia coli [57] = assay: microbe, parasite or virus in culture; conditions: ATCC 35218
# Description: Antimicrobial activity against multidrug resistant Escherichia coli ATCC 35218 harboring pDrive plasmid by broth dilution method
# Escherichia coli [58] = assay: microbe, parasite or virus in culture; conditions: ATCC 35218; remark: listed apart in the source
# Description: Antimicrobial activity against multidrug resistant Escherichia coli ATCC 35218 harboring pDrive plasmid expressing ampC gene by broth dilution method
# Klebsiella aerogenes [59] = assay: Antimicrobial activity against multidrug resistant Enterobacter aerogenes ATCC 15038 harboring pDrive plasmid expressing ampC gene by broth dilution method; type: functional
# Klebsiella aerogenes [60] = assay: Antimicrobial activity against multidrug resistant Enterobacter aerogenes ATCC 15038 harboring pDrive plasmid by broth dilution method; type: functional
smiles,measurement,setting,value
N=C(N)NCCC[C@H](NC(=O)[C@@H](N)Cc1ccccc1)C(=O)Nc1ccc2ccccc2c1 (H-Phe-Arg-βNA),inhibition,Klebsiella pneumoniae [1],Active
same,inhibition,Klebsiella pneumoniae [2],Active
same,inhibition,Klebsiella aerogenes [3],Active
same,inhibition,Klebsiella aerogenes [4],Active
same,inhibition,Klebsiella aerogenes [5],Active
CO[C@@]1(NC(=O)Cc2cccs2)C(=O)N2C(C(=O)O)=C(COC(N)=O)CS[C@@H]21 [CEFOXITIN],MIC,Klebsiella pneumoniae [6],32 µg/mL
same,MIC,Klebsiella pneumoniae [7],64 µg/mL
same,MIC,Klebsiella aerogenes [8],256 µg/mL
same,MIC,Klebsiella pneumoniae [9],16 µg/mL
same,MIC,Klebsiella aerogenes [10],> 1020 µg/mL
same,MIC,Klebsiella aerogenes [11],512 µg/mL
same,MIC,Klebsiella aerogenes [12],> 1020 µg/mL
same,MIC,Klebsiella aerogenes [13],> 1020 µg/mL
same,MIC,Klebsiella aerogenes [14],> 1020 µg/mL
same,MIC,Klebsiella pneumoniae [15],64 µg/mL
same,MIC,Klebsiella aerogenes [16],> 1020 µg/mL
same,MIC,Klebsiella aerogenes [17],> 1020 µg/mL
same,MIC,Klebsiella aerogenes [18],> 1020 µg/mL
same,MIC,Klebsiella aerogenes [19],> 1020 µg/mL
same,MIC,Klebsiella aerogenes [20],> 1020 µg/mL
same,MIC,Klebsiella pneumoniae [21],32 µg/mL
same,MIC,Klebsiella aerogenes [22],> 1020 µg/mL
same,MIC,Klebsiella aerogenes [23],1020 µg/mL
same,MIC,Klebsiella aerogenes [24],> 1020 µg/mL
same,MIC,Klebsiella pneumoniae [25],8 µg/mL
same,MIC,Klebsiella pneumoniae [26],16 µg/mL
same,MIC,Klebsiella aerogenes [27],> 1020 µg/mL
same,MIC,Klebsiella aerogenes [28],> 1020 µg/mL
same,MIC,Klebsiella pneumoniae [29],32 µg/mL
same,MIC,Klebsiella aerogenes [30],> 1020 µg/mL
same,MIC,Klebsiella aerogenes [31],> 1020 µg/mL
same,MIC,Klebsiella pneumoniae [32],32 µg/mL
same,MIC,Klebsiella aerogenes [33],> 1020 µg/mL
same,MIC,Klebsiella pneumoniae [34],8 µg/mL
same,MIC,Klebsiella aerogenes [35],> 1020 µg/mL
same,MIC,Klebsiella aerogenes [36],> 1020 µg/mL
same,MIC,Klebsiella aerogenes [37],> 1020 µg/mL
same,MIC,Klebsiella pneumoniae [38],16 µg/mL
same,MIC,Klebsiella pneumoniae [39],16 µg/mL
same,MIC,Klebsiella aerogenes [40],> 1020 µg/mL
same,MIC,Klebsiella pneumoniae [41],32 µg/mL
same,MIC,Klebsiella pneumoniae [42],16 µg/mL
same,MIC,Klebsiella aerogenes [43],> 1020 µg/mL
same,MIC,Klebsiella pneumoniae [44],32 µg/mL
same,MIC,Klebsiella aerogenes [45],1020 µg/mL
same,MIC,Klebsiella aerogenes [46],128 µg/mL
same,MIC,Klebsiella pneumoniae [47],64 µg/mL
same,MIC,Klebsiella pneumoniae [48],16 µg/mL
same,MIC,Klebsiella aerogenes [49],> 1020 µg/mL
same,MIC,Klebsiella aerogenes [50],> 1020 µg/mL
CC(C)(O/N=C(\C(=O)N[C@@H]1C(=O)N2C(C(=O)[O-])=C(C[n+]3ccccc3)CS[C@H]12)c1csc(N)n1)C(=O)O [CEFTAZIDIME],MIC,Klebsiella pneumoniae [6],2050 µg/mL
same,MIC,Escherichia coli [51],32 µg/mL
same,MIC,Klebsiella pneumoniae [7],16 µg/mL
same,MIC,Klebsiella aerogenes [8],2050 µg/mL
same,MIC,Klebsiella pneumoniae [9],> 2050 µg/mL
same,MIC,Klebsiella aerogenes [10],> 2050 µg/mL
same,MIC,Klebsiella aerogenes [11],> 2050 µg/mL
same,MIC,Klebsiella aerogenes [12],> 2050 µg/mL
same,MIC,Klebsiella aerogenes [13],> 2050 µg/mL
same,MIC,Klebsiella aerogenes [14],> 2050 µg/mL
same,MIC,Klebsiella pneumoniae [15],> 2050 µg/mL
same,MIC,Klebsiella aerogenes [16],> 2050 µg/mL
same,MIC,Klebsiella aerogenes [17],> 2050 µg/mL
same,MIC,Escherichia coli [52],32 µg/mL
same,MIC,Klebsiella aerogenes [53],64 µg/mL
same,MIC,Klebsiella aerogenes [18],> 2050 µg/mL
same,MIC,Klebsiella aerogenes [19],> 2050 µg/mL
same,MIC,Klebsiella aerogenes [20],> 2050 µg/mL
same,MIC,Klebsiella pneumoniae [21],> 2050 µg/mL
same,MIC,Escherichia coli [54],2 µg/mL
same,MIC,Klebsiella aerogenes [22],> 2050 µg/mL
same,MIC,Klebsiella aerogenes [23],> 2050 µg/mL
same,MIC,Klebsiella aerogenes [24],> 2050 µg/mL
same,MIC,Escherichia coli [55],2 µg/mL
same,MIC,Klebsiella pneumoniae [25],0.5 µg/mL
same,MIC,Klebsiella pneumoniae [26],2050 µg/mL
same,MIC,Klebsiella aerogenes [27],> 2050 µg/mL
same,MIC,Klebsiella aerogenes [28],> 2050 µg/mL
same,MIC,Escherichia coli [56],0.125 µg/mL
same,MIC,Klebsiella pneumoniae [29],> 2050 µg/mL
same,MIC,Escherichia coli [57],0.5 µg/mL
same,MIC,Klebsiella aerogenes [30],> 2050 µg/mL
same,MIC,Escherichia coli [58],16 µg/mL
same,MIC,Klebsiella aerogenes [31],> 2050 µg/mL
same,MIC,Klebsiella pneumoniae [32],> 2050 µg/mL
same,MIC,Klebsiella aerogenes [33],> 2050 µg/mL
same,MIC,Klebsiella pneumoniae [34],> 2050 µg/mL
same,MIC,Klebsiella aerogenes [35],1020 µg/mL
same,MIC,Klebsiella aerogenes [36],256 µg/mL
same,MIC,Klebsiella aerogenes [37],> 2050 µg/mL
same,MIC,Klebsiella pneumoniae [38],> 2050 µg/mL
same,MIC,Klebsiella pneumoniae [39],2050 µg/mL
same,MIC,Klebsiella aerogenes [40],> 2050 µg/mL
same,MIC,Klebsiella pneumoniae [41],16 µg/mL
same,MIC,Klebsiella pneumoniae [42],32 µg/mL
same,MIC,Klebsiella aerogenes [43],> 2050 µg/mL
same,MIC,Klebsiella pneumoniae [44],> 2050 µg/mL
same,MIC,Klebsiella aerogenes [45],1020 µg/mL
same,MIC,Klebsiella aerogenes [59],64 µg/mL
same,MIC,Klebsiella aerogenes [60],0.5 µg/mL
same,MIC,Klebsiella aerogenes [46],0.25 µg/mL
same,MIC,Klebsiella pneumoniae [47],16 µg/mL
same,MIC,Klebsiella pneumoniae [48],> 2050 µg/mL
same,MIC,Klebsiella aerogenes [49],> 2050 µg/mL
same,MIC,Klebsiella aerogenes [50],> 2050 µg/mL
